From BindingDB's records for doi:10.1016/j.bmc.2004.10.008 (Mitsubishi Pharma, 2005)

Tests used:
Experiment in all cases: [32P] S1P Binding Assay
Settings in all cases: pH 7.5; 4 °C
[1] = target: T1, Sphingosine 1-phosphate receptor 4 (Homo sapiens, UniProt O95977)
T1 sequence (O95977 whole entry): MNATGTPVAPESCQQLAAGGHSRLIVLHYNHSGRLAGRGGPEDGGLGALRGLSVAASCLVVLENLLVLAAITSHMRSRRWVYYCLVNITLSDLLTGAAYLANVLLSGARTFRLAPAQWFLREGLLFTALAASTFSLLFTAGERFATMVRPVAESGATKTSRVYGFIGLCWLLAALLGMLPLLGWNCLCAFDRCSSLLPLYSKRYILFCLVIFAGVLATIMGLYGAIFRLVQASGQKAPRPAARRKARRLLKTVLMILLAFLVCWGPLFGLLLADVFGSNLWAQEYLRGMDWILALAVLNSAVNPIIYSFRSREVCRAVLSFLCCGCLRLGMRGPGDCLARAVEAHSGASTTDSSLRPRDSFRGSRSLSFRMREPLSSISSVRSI

[2] = target: Sphingosine 1-phosphate receptor 3 (Homo sapiens, UniProt Q99500)
[3] = target: Sphingosine 1-phosphate receptor 1 (Homo sapiens, UniProt P21453)
Chain of Sphingosine 1-phosphate receptor 1 (P21453 whole entry): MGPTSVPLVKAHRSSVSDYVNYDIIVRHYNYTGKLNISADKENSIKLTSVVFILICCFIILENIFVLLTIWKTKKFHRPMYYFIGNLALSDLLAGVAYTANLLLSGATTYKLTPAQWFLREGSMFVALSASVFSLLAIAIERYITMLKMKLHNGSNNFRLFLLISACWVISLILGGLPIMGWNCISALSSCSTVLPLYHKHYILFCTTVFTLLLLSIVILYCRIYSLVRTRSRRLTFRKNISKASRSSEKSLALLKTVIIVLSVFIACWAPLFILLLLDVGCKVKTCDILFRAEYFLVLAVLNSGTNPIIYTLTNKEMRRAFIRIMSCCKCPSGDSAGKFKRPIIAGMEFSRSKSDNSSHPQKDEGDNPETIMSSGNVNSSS

Chain of Sphingosine 1-phosphate receptor 3 (Q99500 whole entry): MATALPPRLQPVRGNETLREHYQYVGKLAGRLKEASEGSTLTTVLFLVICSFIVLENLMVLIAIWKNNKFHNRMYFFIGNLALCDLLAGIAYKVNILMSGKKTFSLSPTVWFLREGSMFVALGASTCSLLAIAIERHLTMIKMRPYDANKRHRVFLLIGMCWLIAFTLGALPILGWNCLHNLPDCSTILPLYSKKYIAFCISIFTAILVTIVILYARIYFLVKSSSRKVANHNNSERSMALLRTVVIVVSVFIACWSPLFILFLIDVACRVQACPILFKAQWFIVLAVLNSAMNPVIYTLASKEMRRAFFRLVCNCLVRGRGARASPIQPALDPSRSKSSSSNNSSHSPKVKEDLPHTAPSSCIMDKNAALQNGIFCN

| Ki [1] [nM] | SMILES | Ki [2] [nM] | Ki [3] [nM] |
| --- | --- | --- | --- |
| 105 | CCCCCCCCc1ccc(CC[C@@](N)(CO)COP(=O)(O)O)cc1 |  |  |
| 23 | CCCCCCCCc1ccc(CC[C@](N)(CO)COP(=O)(O)O)cc1 |  |  |
| 37 | CCCCCCCCc1ccc(CCC(N)(CO)COP(=O)(O)O)cc1 (stereo unspecified) [{2-amino-3-hydroxy-2-[2-(4-octylphenyl)ethyl]propoxy}phosphonic acid] |  |  |

| SMILES | Ki [1] [nM] | Ki [2] [nM] | Ki [3] [nM] |
| --- | --- | --- | --- |
| CCCCCCCCCCCCC/C=C\C(O)C(N)COP(=O)(O)O (stereo unspecified) [{[(4Z)-2-amino-3-hydroxyoctadec-4-en-1-yl]oxy}phosphonic acid] | 2.7 | 5.4 | 1.2 |
